Source: patent publication US11466024B2, “Bicylic compound acting as an inhibitor” (CHIA TAI TIANQING PHARMACEUTICAL GROUP CO., LTD., priority 2017, dated 2022)
Structures can show the parent of a compound that is named as a salt. Each block holds one compound with its values, some of them ahead of it.

Experiments:
RORγ = biological target: T1, RORγ (Homo sapiens, UniProt P51449); experiment: In vitro test for inhibitory activity on RORγ: luciferase reporter cells expressing chimeric Gal4-RORγ receptor; type: cell-based; details: Gal4 hybrid receptor luciferase reporter, HEK293, 24 hours incubation
T1 sequence (P51449 97-518): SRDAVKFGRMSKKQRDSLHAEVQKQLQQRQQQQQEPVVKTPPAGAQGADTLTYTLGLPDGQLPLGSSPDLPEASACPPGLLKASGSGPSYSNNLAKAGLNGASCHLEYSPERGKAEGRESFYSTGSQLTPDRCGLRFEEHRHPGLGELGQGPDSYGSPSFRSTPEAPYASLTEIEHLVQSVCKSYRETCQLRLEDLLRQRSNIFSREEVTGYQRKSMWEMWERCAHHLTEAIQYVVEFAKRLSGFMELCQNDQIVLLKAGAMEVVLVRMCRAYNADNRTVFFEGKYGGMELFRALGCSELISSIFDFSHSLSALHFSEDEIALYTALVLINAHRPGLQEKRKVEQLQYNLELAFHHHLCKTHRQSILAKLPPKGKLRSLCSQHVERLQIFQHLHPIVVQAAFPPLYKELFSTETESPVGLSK
Protocol: Reporter cells: Reporter cells expressing a chimeric RORγ receptor were used in this experiment. The chimeric RORγ receptor was a RORγ receptor formed by replacing the N-terminal DNA-binding domain of the natural RORγ protein with the DNA-binding domain of the yeast Gal4 protein. The luciferase reporter gene was located at the downstream of the Gal4 activating sequence (UAS).
Step 1: Reporter cells were prepared into a cell suspension using INDIGO's Cell Recovery Medium (CRM, containing 5% fetal bovine serum treated by activated carbon). The cell suspension was dispensed into a white 96-well culture plate in a volume of 100 μl/well.
Step 2: Eight concentration gradients were set for each test compound, and the test was conducted twice at each concentration. Prior to the experiment, the main stock solution of the test compound was serially diluted with DMSO, so as to formulate solutions with “1000×-concentration” relative to each of the final test concentrations. Subsequently, the compound was further diluted with the cell recovery medium (CRM, containing 5% fetal bovine serum treated by activated carbon), so as to formulate test working solutions with “2×-concentration”. As per a volume of 100 μl/well, the test working solutions were respectively added to the test wells in which the reporter cells were added in advance, so as to obtain the desired final test concentrations. The residual concentrations of DMSO in all test wells were 0.1%. The test plate was incubated in a cell incubator for 24 hours. Conditions of the incubator were set as follows: temperature: 37° C., 5% CO2, humidity: ˜85%.
Step 3: After 24 hours of incubation, the liquid in the culture plate was discarded, 100 μl of luciferase detection reagent was added to each test well, and then, the fluorescence intensity (Relative Luminescence Units, RLUs) in each well was read.
In this test, the reference compound ursolic acid was used as an internal standard of a positive compound to verify the inhibitory effect of the test compound on RORγ in reporter cells of a specific batch. The tests for the reference compound and the test compound were performed simultaneously, and the reference compound and the test compound were thus exposed to the same test reagent and environment. The reference compound group containing 0.1% DMSO as solvent was used as an internal standard of a positive compound, so as to determine the effect of the solvent DMSO on the test results and calculate the percentage reduction in RORγ activity.
The test data was managed and archived by Microsoft Excel, and mean±standard deviation (SD) of RLU, fold of reduction, inhibition rate, coefficient of variation (% CV) and Z factor were calculated. Coefficient of variation (% CV): 100×(SD/Ave. RLU); Fold of reduction for inverse agonist: [Ave. […]

RORC2-LBD = biological target: T2, RORC2-LBD (Homo sapiens, UniProt P51449); experiment: In vitro test for inhibitory activity on RORγ: TR-FRET screening (RORC2-LBD / SRC1 peptide interaction); type: biochemical; details: Value of the concentration required for 50% inhibition (EC50) of RORγ, 15 nM RORc-LBD, 200 nM SRC1 peptide, 4° C. overnight
T2 sequence (P51449 269-508 limits assumed): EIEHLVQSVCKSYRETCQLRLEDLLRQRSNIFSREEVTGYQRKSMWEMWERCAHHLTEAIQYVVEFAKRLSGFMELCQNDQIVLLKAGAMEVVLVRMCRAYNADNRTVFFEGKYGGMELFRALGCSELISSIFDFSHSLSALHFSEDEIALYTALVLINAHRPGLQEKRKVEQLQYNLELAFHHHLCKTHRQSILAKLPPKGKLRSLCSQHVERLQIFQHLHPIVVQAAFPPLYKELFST
Text: The compounds of the present application was able to regulate (inhibit) the bioactivity of the nuclear receptor RORγ, and the strength of this regulatory (inhibitory) effect could be evaluated by a TR-FRET (time-resolved fluorescence resonance energy transfer) screening system. Nuclear receptor cofactors (co-activators and co-inhibitors) could regulate the transcription of a target gene by the interaction with nuclear receptors. If a ligand (test compound) affected the interaction between the nuclear receptors and the cofactors, this ligand (test compound) was able to regulate the transcription of the corresponding gene.
This method adopted the TR-FRET (time-resolved fluorescence resonance energy transfer) technique to determine the ability of a compound to regulate the interaction between the polypeptide indirectly bound to APC […] (namely, APC was indirectly bound to the polypeptide by binding to Streptavidin and biotin) and RORC2-LBD linked to a europium (Eu)-labeled anti-His antibody (Perkin Elmer #AD0111). In the absence of the compound, RORC2 could bind to an APC-modified polypeptide. If the compound was an agonist, it could enhance the interaction between RORC2 and the APC-modified polypeptide after binding to RORC2. On the contrary, if the compound was an inverse agonist, it could inhibit the interaction between RORC2 and the APC-modified polypeptide after binding to RORC2. When the APC-modified polypeptide and the Eu-labeled anti-His antibody-RORC2-LBD complex approached to each other and the distance therebetween was within a certain distance, energy transfer could occur and a TR-FRET signal was generated.
A buffer solution comprising 50 mM Tris (pH 7.0), 50 mM KCl, 1 mM Na-EDTA, 0.01% BSA (0.1 mg/ml), and 0.1 mM DTT was freshly formulated prior to the experiment.
2.3 Formulation of a RORγ-containing working solution. Prior to the test, a working solution containing 1.67 nM Eu/anti-His and 0.75 μl/well of SF9 cell lysate was freshly formulated, and was placed on ice before use. 25.05 nM of RORγ was added to the working solution.
2.5 Ten concentration gradients were set for each test compound, and duplicate wells were set for each concentration. The formulating method of the test compounds was as follows: […]
2) 15 μl of the RORγ-containing working solution was added to columns 1 to 21 of the tested 384-well plate (the final concentration of Eu/anti-His was 1 nM, and the final concentration of RORg was 15 nM); and […]
9) data analysis was performed using the ratio of the numerical value detected at an emission wavelength of 665 nm to the numerical value detected at an emission wavelength of 615 nm. […]

[1] = system: MOG35-55-induced experimental autoimmune encephalomyelitis (EAE); experiment: In vivo pharmacodynamic research on MOG35-55-induced experimental autoimmune encephalomyelitis (EAE) in mice; details: G3, 0.5 mg/kg p.o. qd
Protocol: The day of immunization was recorded as day 0, and the subsequent days were marked sequentially. Mice were anesthetized with isoflurane, and 100 μl of the emulsion was administered via subcutaneous injection at three sites (the middle part between shoulder and back, and two sides of the tail that were close to the groin), namely, 33 μl of the emulsion for each site. 0 hour and 48 hours after the injection of the emulsion, 200 ng (i.e. 200 μl) of the PTX solution was intraperitoneal injected. Mice in the normal group were not required to be immunized.
After the immunization on day 0, the immunized mice were randomly divided into 3 groups with 10 mice in each group according to the body weights except for the mice in the normal group, the details were shown in Table 1. FTY720 served as a positive drug, and a dose of […] was an effective dose commonly used in the EAE model.
The first group was normal mice without any treatment; vehicle was administered to the second group; FTY720 was administered to the third group at a dose of 0.5 mg/kg once a day; and the compound of Example 1 was administered to the fourth group at a dose of 75 mg/kg twice a day. The administration lasted for 25 days in total. The volume of intragastric administration was 10 ml/kg.
The day when animals were immunized was day 0. Animal body weights were recorded three times a week from day 0 to day 10, and the body weights and clinical scores of the animals were closely observed and recorded daily from day 11.
The experimental data was expressed as mean±standard error of mean (Mean±SEM).
The area under the curve of clinical scores over time (i.e. “AUC of clinical scores” or “area under the curve of clinical scores”) was calculated by analyzing the curve of clinical scores for each animal in each group, and the inhibition rates of the remaining groups (G1, G3, and G4) relative to G2 (solvent control group) were calculated by the mean AUC of clinical scores among groups.

[2] = system: imiquimod-induced psoriasis; experiment: In vivo pharmacodynamic study in imiquimod (IMQ)-induced psoriasis model in mice; set-up: species or system C57BL/6 mice; key to Clinical scores (Mean ± SEM, n = 8): 0 = no disease, 1 mild, 2 moderate, 3 severe, 4 very severe; details: 5 mg/kg, ig
Protocol: 6- to 8-week old female C57BL/6 mice were selected, depilated on the backs, and sensitized two days later except for the sham operation group. On the day of sensitization, the mice were randomly divided into the following 6 groups (8 mice per group). Group I was a sham operation group; Group II was a vehicle control group and PBS was administered; Group III was a positive control group and 5 mg/kg methotrexate was administered; Groups IV, V and VI were ip treatment group, ig treatment group, and topical treatment group of the compound of Example 1, and 75 mg/kg of the compound of Example 1 was administered via intraperitoneal injection, intragastric administration, and dorsal application, respectively. Administration was started on the day of sensitization, once daily for Group III and twice daily for Groups IV to VI. On the day of sensitization, the mice in Groups II to VI were given 60 to 80 mg of imiquimod cream (5%) on the dorsal skin for 4 consecutive days. (Please refer to Bouchaud, G., et al., Epidermal IL-15Ralpha acts as an endogenous antagonist of psoriasiform inflammation in mouse and man. J. Exp. Med., 2013. 210(10): p. 2105-17.)
The mice were weighed daily from the day of sensitization, and the skin scales, induration, and erythema were observed and scored according to a four-grade scoring method: 0 point, no disease; 1 point, mild; 2 points, moderate; 3 points, severe; and 4 points, very severe. (Please refer to Qin, S., et al., Endogenous n-3 polyunsaturated fatty acids protect against imiquimod-induced psoriasis-like inflammation via the IL-17/IL-23 axis. Mol Med Rep, 2014. 9(6): p. 2097-104.)

SMILES: CCCCCCCCc1ccc(CCC(N)(CO)CO)cc1 [FTY720, fingolimod hydrochloride, reference compound]
inhibition rate of AUC of clinical scores relative to solvent control group ([1]; 25 days, FIG. 2): 100% | morbidity of EAE ([1]; from the beginning to end, FIG. 3): 0 | body weight changes ([1]; significantly different from solvent control group, FIG. 4): kept increasing

SMILES: CN(Cc1cnc2nc(N)nc(N)c2n1)c1ccc(C(=O)N[C@@H](CCC(=O)O)C(=O)O)cc1 [Methotrexate, reference compound]
Clinical scores (Mean ± SEM, n = 8) ([2]; Day 1): 0 ± 0 | Clinical scores (Mean ± SEM, n = 8) ([2]; Day 2): 0.19 ± 0.13 | Clinical scores (Mean ± SEM, n = 8) ([2]; Day 3): 0.50 ± 0.13 | Clinical scores (Mean ± SEM, n = 8) ([2]; Day 4): 0.88 ± 0.25 | Clinical scores (Mean ± SEM, n = 8) ([2]; Day 5): 0.93 ± 0.23

Other lines, results leading:

EC50 (RORγ; Specific value of the concentration required for 50% inhibition (EC50) of RORγ): 147 nM | EC50 (RORγ; Value of the concentration required for 50% Inhibition (EC50) of RORγ): 100 to 500 nM | EC50 (RORC2-LBD): 100 to 500 nM
SMILES: CCS(=O)(=O)c1ccc(CNC(=O)c2cc3c(s2)C(C(C)C)N(CC2CCC(C(F)(F)F)CC2)C3=O)nc1 (single isomer, unassigned) [Example 3]

EC50 (RORC2-LBD): 1000 to 5000 nM
SMILES: CCS(=O)(=O)c1ccc(CNC(=O)c2cc3c(s2)C(C(C)C)N(CC2CCC(C(F)(F)F)CC2)C3=O)nc1 (single isomer, unassigned) [Example 4]

EC50 (RORC2-LBD): < 100 nM
SMILES: CCS(=O)(=O)c1ccc(CNC(=O)c2cc3c(s2)C(C(C)C)N(Cc2ccc(C(F)(F)F)cc2)C3)nc1 (stereo not shown) [Example 9]
